Laboratory results as given in patent US11787840B2, “Compositions and methods for treating and preventing autoimmune induced cardiac long QT syndrome” (The United States Government As Represented By The …, priority 2019, dated 2023).
“Also recorded” adds a separate entry of the source.

Test system: Ro52-immunized guinea-pigs (anti-Ro Abs associated QTc prolongation)
Assay: QTc (ECG) in Ro52-immunized guinea pigs after linear peptide 4
Assay type: in vivo, guinea pig
Details: linear peptide 4, 2 mg/kg, one-time injection at day 15; ECG through day 30; versus immunized control without peptide
Source text: Immunization and peptide administration protocol. The overall experimental protocol for immunization and administration of the peptide used to generate data in FIG. 2 is shown in FIG. 6. Specifically, two group of guinea pigs (control and experimental) were first immunized subcutaneously initially on day 0 (Do) with Ro52 antigen followed by a booster at days 10 and 15, and anti-Ro antibodies levels were monitored by ELISA. The control group was not administered any peptide treatment except the immunization. The experimental group was injected with the linear peptide #4 (2 mg/kg) at day 15.

GNMEQPHMDSRIGWLHNLGDQ [Peptide 4]
effect on QTc interval: rescued and normalized the QTc interval; also recorded: drastic shortening of QTc
